From paper PMC12332667, “Role of Structural Modifications in Peptidomimetic Compounds as Potential Antimicrobial Agents against Staphylococcus aureus and Streptococcus pyogenes: Balancing Bioavailability, Safety, and Antimicrobial Activity” (ACS Omega, 2025)
Converted amounts (≈) assume the structure as drawn.

Columns and labels:
[1] = system: K. pneumoniae ATCC 700603; test: MIC/MBC broth microdilution, K. pneumoniae; assay type: cell-based
Protocol: (§1) S. aureus (ATCC 29213),S. pyogenes (ATCC 19615),Streptococcus agalactiae (ATCC 27956),Escherichia coli (ATCC 25922),Proteus vulgaris (ATCC 6896),K. pneumoniae (ATCC 700603) andP. aeruginosa (ATCC 10145) reference strains, as well asStaphylococcus cohnii, Enterococcus faecalis, Staphylococcus schleiferi, Staphylococcus intermedius and Streptococcus mutans clinical isolates, were used to test the antibacterial activity of the peptidomimetics. Bacteria were aerobically cultured for 18 h at 37 °C in plates with sterilized brain heart infusion (BHI) broth (Sigma-Aldrich, USA) media mixed with bacteriological agar (Sigma-Aldrich, USA) using the streak plate method. After 18 h, BHI broth was inoculated to 0.5 on the McFarland scale and diluted to approximately 10^5 CFU/mL. To achieve a final stock concentration of 1024 μg/mL, the peptidomimetics were dissolved in sterile water, and 5–10% of absolute ethanol or dimethyl sulfoxide (DMSO) was added. The antibacterial activities were determined by using the standard broth microdilution method of the National Committee for Clinical Laboratory Standards. The process involved adding serially diluted peptidomimetics to consecutive wells of a 96-well microtiter plate (Brand, Germany) holding media with microorganisms. The inoculated plates treated with peptides were then placed in an incubator at 37 °C for 18 h. The MIC value was determined as the lowest concentration of peptidomimetic at which there was no obvious growth (equal or more than 90% of the untreated sample). […] The lowest concentration yielding growth in no more than 3 colonies, corresponding to at least a 99.9% kill rate, was taken as MBC. Each biological replicate included control wells with the addition of water, DMSO, and ethanol as respective solvent controls. All experiments were conducted with consistent adherence to growth and sterility controls and were performed at least in technical triplicate with three biological repeats.

E. faecalis c.i. = test: MIC/MBC broth microdilution, E. faecalis; assay type: cell-based, Enterococcus faecalis
Protocol: as §1

S. schleiferi c.i. = test: MIC/MBC broth microdilution, S. schleiferi; assay type: cell-based, Staphylococcus schleiferi
Protocol: as §1

S. agalactiae ATCC 27956 = test: MIC/MBC broth microdilution, S. agalactiae; assay type: cell-based, Streptococcus agalactiae; conditions: S. agalactiae
Protocol: as §1

S. mutans c.i. = test: MIC/MBC broth microdilution, S. mutans; assay type: cell-based, Streptococcus mutans
Protocol: as §1

S. aureus ATCC 43300 = test: MIC/MBC broth microdilution, S. aureus; assay type: cell-based, Staphylococcus aureus; conditions: S. aureus
S. intemrdius c.i. = test: MIC/MBC broth microdilution, S. intermedius; assay type: cell-based, Staphylococcus intermedius
Protocol: as §1

S. cohnii c.i. = test: MIC/MBC broth microdilution, S. cohnii; assay type: cell-based, Staphylococcus cohnii
Protocol: as §1

fibroblasts (46BR.1N) = test: LDH cytotoxicity test, fibroblasts; assay type: cell-based; conditions: 48 h, 50, 100 and 150 μg/mL, vs 1% Triton X-100
Protocol: (§2) In our study, we used two distinct cell types: immortalized human HaCaT keratinocytes (DKFZ, Heidelberg, Germany) and a human dermal fibroblast cell line (46BR.1N). […] Cultures were maintained in a humidified atmosphere with 5% CO2 at 37 °C in 25 cm^2 culture flasks with the medium replenished every 2 days. The condition of the cells was monitored using optical microscopy.
(§3) Cell death in immortalized human keratinocytes (HaCaT) and fibroblasts (46BR.1N) was measured by quantifying the lactate dehydrogenase (LDH) activity using a commercial kit (Roche, Switzerland). Cells were seeded in 96-well plates at a density of 5000 cells per well in DMEM high glucose medium supplemented with 10% FBS. After 24 h of incubation, the medium was replaced with serum-free medium containing various concentrations of peptidomimetics (50, 100, and 150 μg/mL). After 48 h, supernatants were collected for LDH analysis. Plate readings were taken spectrophotometrically using a 450 nm wavelength. Cell death measurements were normalized to an untreated control (0%), with 1% Triton X-100 detergent used as a positive control to induce maximum LDH release, indicating maximal cytotoxicity. Statistical significance was determined with a Mann–Whitney U test with a statistical significance p ≤ 0.05. Analysis was performed with Statistica software (Krakow, Poland) and graphs were prepared in GraphPad Prism (Boston, USA).

E. coli ATCC 25922 = test: MIC/MBC broth microdilution, E. coli; assay type: cell-based, Escherichia coli
Protocol: as §1

[2] = system: human dermal fibroblast cell line (46BR.1N); test: XTT cell proliferation assay, fibroblasts; assay type: cell-based; conditions: XTT
Protocol: (§4) In our study, we used two distinct cell types: immortalized human HaCaT keratinocytes (DKFZ, Heidelberg, Germany) and a human dermal fibroblast cell line (46BR.1N). […] Cultures were maintained in a humidified atmosphere with 5% CO2 at 37 °C in 25 cm^2 culture flasks with the medium replenished every 2 days. The condition of the cells was monitored using optical microscopy. […] After 24 h of incubation, the medium was replaced with serum-free HG-DMEM containing appropriate concentrations of peptidomimetics. All solutions used in the experiments were prepared with double-distilled water or with the addition of ethanol under sterile conditions to ensure compatibility with the conditions of the bacteriological assay. For 72 h of incubation, half of the medium was replaced with fresh medium after 48 h, and cells were stimulated with peptides for a second time. The XTT cell proliferation assay was then performed according to the manufacturer’s instructions (Roche, Switzerland). Cells were treated with the peptides for either 48 or 72 h, followed by the addition of XTT reagent, and the plates were then incubated at 37 °C in a 5% CO2 environment for 4 h. Plate readings were taken using a standard plate reader at a wavelength of 490 nm (OD = 490 nm). […] Statistical significance was determined with a Mann–Whitney U test with statistical significance p ≤ 0.05. Analysis was performed with Statistica software, and graphs were prepared in GraphPad Prism.

[3] = system: immortalized human HaCaT keratinocytes; test: XTT cell proliferation assay, keratinocytes; assay type: cell-based; conditions: XTT
Protocol: as §4

P. vulgaris ATCC 6896 = test: MIC/MBC broth microdilution, P. vulgaris; assay type: cell-based, Proteus vulgaris
Protocol: as §1

P. aeruginosa ATCC 10145 = test: MIC/MBC broth microdilution, P. aeruginosa; assay type: cell-based
Protocol: as §1

[4] = system: immortalized human keratinocytes (HaCaT); test: LDH cytotoxicity test, keratinocytes; assay type: cell-based; conditions: 48 h, 50, 100 and 150 μg/mL, vs 1% Triton X-100
Protocol: as §2, §3

S. pyogenes ATCC 19615 = test: MIC/MBC broth microdilution, S. pyogenes; assay type: cell-based, Streptococcus pyogenes; conditions: S. pyogenes
Protocol: as §1

Question: For `CC(C)C[C@H](NC(=O)[C@H](CCCCNC(=N)N)NC(=O)OCc1ccccc1)C(=O)N[C@H](CNC(=O)/C=C/c1ccccc1)C(C)C` [Compound A-134], which MIC ([1]; water additive DMSO) is on record?
Answer: > 512 µg/mL

Question: And the MIC ([1]; water additive EtOH)?
Answer: > 512 µg/mL

Question: What about the MBC (E. faecalis c.i.; water additive DMSO) of the same compound?
Answer: 512 µg/mL (≈ 788 µM)

Question: And the MIC (E. faecalis c.i.; water additive DMSO)?
Answer: 256 µg/mL (≈ 394 µM)

Question: And the MBC (E. faecalis c.i.; water additive EtOH)?
Answer: 512 µg/mL (≈ 788 µM)

Question: And the MIC (E. faecalis c.i.; water additive EtOH)?
Answer: 512 µg/mL (≈ 788 µM)

Question: What about the MIC (S. schleiferi c.i.; water additive DMSO) of the same compound?
Answer: > 512 µg/mL

Question: And the MIC (S. schleiferi c.i.; water additive EtOH)?
Answer: > 512 µg/mL

Question: And the MIC (S. agalactiae ATCC 27956; water additive DMSO)?
Answer: 32 µg/mL (≈ 49.2 µM)

Question: And the MIC (S. agalactiae ATCC 27956; water additive EtOH)?
Answer: 32 µg/mL (≈ 49.2 µM)

Question: What about the MBC (S. mutans c.i.; water additive DMSO) of the same compound?
Answer: > 512 µg/mL

Question: What about the MIC (S. mutans c.i.; water additive DMSO) of the same compound?
Answer: 512 µg/mL (≈ 788 µM)

Question: What about the MIC (S. mutans c.i.; water additive EtOH) of the same compound?
Answer: > 512 µg/mL

Question: And the MIC (S. aureus ATCC 43300; H2O)?
Answer: 32 µg/mL (≈ 49.2 µM)

Question: And the MIC (S. aureus ATCC 43300; water additive EtOH)?
Answer: 32 µg/mL (≈ 49.2 µM)

Question: And the MBC (S. intemrdius c.i.; water additive DMSO)?
Answer: 32 µg/mL (≈ 49.2 µM)

Question: What about the MIC (S. intemrdius c.i.; water additive DMSO) of the same compound?
Answer: 32 µg/mL (≈ 49.2 µM)

Question: What about the MBC (S. intemrdius c.i.; water additive EtOH) of the same compound?
Answer: 16 µg/mL (≈ 24.6 µM)

Question: What about the MIC (S. intemrdius c.i.; water additive EtOH) of the same compound?
Answer: 16 µg/mL (≈ 24.6 µM)

Question: And the MBC (S. cohnii c.i.; water additive DMSO)?
Answer: 32 µg/mL (≈ 49.2 µM)

Question: And the MIC (S. cohnii c.i.; water additive DMSO)?
Answer: 32 µg/mL (≈ 49.2 µM)

Question: What about the MBC (S. cohnii c.i.; water additive EtOH) of the same compound?
Answer: 32 µg/mL (≈ 49.2 µM)

Question: What about the MIC (S. cohnii c.i.; water additive EtOH) of the same compound?
Answer: 32 µg/mL (≈ 49.2 µM)

Question: What about the “cytotoxicity (LDH)” value (fibroblasts (46BR.1N)) of the same compound?
Answer: ≤ 50%

Question: What about the MIC (E. coli ATCC 25922; water additive DMSO) of the same compound?
Answer: > 512 µg/mL

Question: What about the MIC (E. coli ATCC 25922; water additive EtOH) of the same compound?
Answer: > 512 µg/mL

Question: What about the “proliferation relative to control at 50 μg/mL” value ([2]; 50 μg/mL) of the same compound?
Answer: approximately 75%

Question: What about the “effect on proliferation, in words” value ([2]; 48 and 72 h, 0.01–150 μg/mL) of the same compound?
Answer: pro-proliferating effect at lower concentrations followed by an antiproliferative effect at higher concentrations

Question: What about the “proliferation relative to control at 50 μg/mL” value ([3]; 50 μg/mL) of the same compound?
Answer: approximately 75%

Question: What about the “effect on proliferation, in words” value ([3]; 48 and 72 h, 0.01–150 μg/mL) of the same compound?
Answer: pro-proliferating effect at lower concentrations followed by an antiproliferative effect at higher concentrations

Question: And the MIC (P. vulgaris ATCC 6896; water additive DMSO)?
Answer: > 512 µg/mL

Question: What about the MIC (P. vulgaris ATCC 6896; water additive EtOH) of the same compound?
Answer: > 512 µg/mL

Question: And the MIC (P. aeruginosa ATCC 10145; water additive DMSO)?
Answer: > 512 µg/mL

Question: And the MIC (P. aeruginosa ATCC 10145; water additive EtOH)?
Answer: > 512 µg/mL

Question: What about the “cytotoxicity (LDH)” value [4] of the same compound?
Answer: ≤ 50%

Question: And the MIC (S. pyogenes ATCC 19615; H2O)?
Answer: 32 µg/mL (≈ 49.2 µM)

Question: What about the MBC (S. pyogenes ATCC 19615; water additive DMSO) of the same compound?
Answer: 16 µg/mL (≈ 24.6 µM)

Question: And the MIC (S. pyogenes ATCC 19615; water additive DMSO)?
Answer: 32 µg/mL (≈ 49.2 µM)

Question: And the MBC (S. pyogenes ATCC 19615; water additive EtOH)?
Answer: 32 µg/mL (≈ 49.2 µM)

Question: What about the MIC (S. pyogenes ATCC 19615; water additive EtOH) of the same compound?
Answer: 16 µg/mL (≈ 24.6 µM)
